# Data as given in ChEMBL document CHEMBL4138123, “Design, synthesis and biological evaluation of novel pyrazolochalcones as potential modulators of PI3K/Akt/mTOR pathway and inducers of apoptosis in breast cancer cells” (Eur J Med Chem, 2017).
# Assays:
# Format in all cases: functional
# HCC 2998 [1] = assay: Cytotoxicity against human HCC2998 cells assessed as growth inhibition after 48 hrs by sulforhodamine B assay; conditions: HCC 2998, 48 h
# SW-620 [2] = assay: Cytotoxicity against human SW620 cells assessed as growth inhibition after 48 hrs by sulforhodamine B assay; conditions: SW-620, 48 h
# LOX IMVI = assay: Cytotoxicity against human LOXIMVI cells assessed as growth inhibition after 48 hrs by sulforhodamine B assay
# MDA-MB-435 = assay: Cytotoxicity against human MDA-MB-435 cells assessed as growth inhibition after 48 hrs by sulforhodamine B assay; conditions: MDA-MB-435, 48 h
# NCI/ADR-RES [3] = assay: Cytotoxicity against human NCI/ADR-RES cells assessed as growth inhibition after 48 hrs by sulforhodamine B assay
# A498 [4] = assay: Cytotoxicity against human A498 cells assessed as growth inhibition after 48 hrs by sulforhodamine B assay; conditions: A498, 48 h
# SN12C [5] = assay: Cytotoxicity against human SN12C cells assessed as growth inhibition after 48 hrs by sulforhodamine B assay
# MCF7 [6] = assay: Cytotoxicity against human MCF7 cells assessed as growth inhibition after 48 hrs by sulforhodamine B assay; conditions: MCF7, 48 h
# Hs-578T [7] = assay: Cytotoxicity against human Hs 578T cells assessed as growth inhibition after 48 hrs by sulforhodamine B assay
# T47D [8] = assay: Cytotoxicity against human T47D cells assessed as growth inhibition after 48 hrs by sulforhodamine B assay
# OVCAR-4 = assay: Cytotoxicity against human OVCAR4 cells assessed as cell growth at 0.01 uM after 48 hrs by sulforhodamine B assay relative to control; conditions: OVCAR-4, 48 h, read-out: Activity
# HCT-116 [9] = assay: Cytotoxicity against human HCT116 cells assessed as cell growth at 0.01 uM after 48 hrs by sulforhodamine B assay relative to control; conditions: HCT-116, 48 h, read-out: Activity
# HOP-62 [10] = assay: Cytotoxicity against human HOP62 cells assessed as cell growth at 0.01 uM after 48 hrs by sulforhodamine B assay relative to control; conditions: HOP-62, 48 h, read-out: Activity
# SN12C [11] = assay: Cytotoxicity against human SN12C cells assessed as cell growth at 0.01 uM after 48 hrs by sulforhodamine B assay relative to control; conditions: read-out: Activity
# MDA-MB-231 = assay: Cytotoxicity against human MDA-MB-231 cells assessed as cell growth at 0.01 uM after 48 hrs by sulforhodamine B assay relative to control; conditions: MDA-MB-231, 48 h, read-out: Activity
# CCRF-CEM = assay: Cytotoxicity against human CCRF-CEM cells assessed as cell growth at 0.1 uM after 48 hrs by sulforhodamine B assay relative to control; conditions: read-out: Activity
# NCI-H322M [12] = assay: Cytotoxicity against human NCI-H322M cells assessed as cell growth at 0.1 uM after 48 hrs by sulforhodamine B assay relative to control; conditions: read-out: Activity
# SNB-19 = assay: Cytotoxicity against human SNB19 cells assessed as cell growth at 0.1 uM after 48 hrs by sulforhodamine B assay relative to control; conditions: SNB-19, 48 h, read-out: Activity
# A498 [13] = assay: Cytotoxicity against human A498 cells assessed as cell growth at 0.1 uM after 48 hrs by sulforhodamine B assay relative to control; conditions: A498, 48 h, read-out: Activity
# HOP-62 [14] = assay: Cytotoxicity against human HOP62 cells assessed as cell growth at 1 uM after 48 hrs by sulforhodamine B assay relative to control; conditions: HOP-62, 48 h, read-out: Activity
# NCI-H226 = assay: Cytotoxicity against human NCI-H226 cells assessed as cell growth at 1 uM after 48 hrs by sulforhodamine B assay relative to control; conditions: NCI-H226, 48 h, read-out: Activity
# HCC 2998 [15] = assay: Cytotoxicity against human HCC2998 cells assessed as cell growth at 1 uM after 48 hrs by sulforhodamine B assay relative to control; conditions: HCC 2998, 48 h, read-out: Activity
# OVCAR-5 = assay: Cytotoxicity against human OVCAR5 cells assessed as cell growth at 1 uM after 48 hrs by sulforhodamine B assay relative to control; conditions: OVCAR-5, 48 h, read-out: Activity
# NCI/ADR-RES [16] = assay: Cytotoxicity against human NCI/ADR-RES cells assessed as cell growth at 1 uM after 48 hrs by sulforhodamine B assay relative to control; conditions: read-out: Activity
# PC-3 = assay: Cytotoxicity against human PC3 cells assessed as cell growth at 1 uM after 48 hrs by sulforhodamine B assay relative to control; conditions: PC-3, 48 h, read-out: Activity
# T47D [17] = assay: Cytotoxicity against human T47D cells assessed as cell growth at 1 uM after 48 hrs by sulforhodamine B assay relative to control; conditions: read-out: Activity
# HCT-116 [18] = assay: Cytotoxicity against human HCT116 cells assessed as cell growth at 10 uM after 48 hrs by sulforhodamine B assay relative to control; conditions: HCT-116, 48 h, read-out: Activity
# HCT-15 [19] = assay: Cytotoxicity against human HCT15 cells assessed as cell growth at 10 uM after 48 hrs by sulforhodamine B assay relative to control; conditions: HCT-15, 48 h, read-out: Activity
# SW-620 [20] = assay: Cytotoxicity against human SW620 cells assessed as cell growth at 10 uM after 48 hrs by sulforhodamine B assay relative to control; conditions: SW-620, 48 h, read-out: Activity
# SK-MEL-5 = assay: Cytotoxicity against human SK-MEL-5 cells assessed as cell growth at 10 uM after 48 hrs by sulforhodamine B assay relative to control; conditions: SK-MEL-5, 48 h, read-out: Activity
# 786-0 = assay: Cytotoxicity against human 786-0 cells assessed as cell growth at 10 uM after 48 hrs by sulforhodamine B assay relative to control; conditions: 786-0, 48 h, read-out: Activity
# NCI-H322M [21] = assay: Cytotoxicity against human NCI-H322M cells assessed as cell growth at 100 uM after 48 hrs by sulforhodamine B assay relative to control; conditions: read-out: Activity
# HCT-15 [22] = assay: Cytotoxicity against human HCT15 cells assessed as cell growth at 100 uM after 48 hrs by sulforhodamine B assay relative to control; conditions: HCT-15, 48 h, read-out: Activity
# UACC-62 = assay: Cytotoxicity against human UACC62 cells assessed as cell growth at 100 uM after 48 hrs by sulforhodamine B assay relative to control; conditions: UACC-62, 48 h, read-out: Activity
# A498 [23] = assay: Cytotoxicity against human A498 cells assessed as cell growth at 100 uM after 48 hrs by sulforhodamine B assay relative to control; conditions: A498, 48 h, read-out: Activity
# MCF7 [24] = assay: Cytotoxicity against human MCF7 cells assessed as cell growth at 100 uM after 48 hrs by sulforhodamine B assay relative to control; conditions: MCF7, 48 h, read-out: Activity
# Hs-578T [25] = assay: Cytotoxicity against human Hs 578T cells assessed as cell growth at 100 uM after 48 hrs by sulforhodamine B assay relative to control; conditions: read-out: Activity
structure (smiles),measurement,setting,value
COc1ccc(C(=O)/C=C/c2cc(-c3ccc(OC)c(OC)c3)n[nH]2)cc1OC,GI50,HCC 2998 [1],1.74 µM
same,TGI,HCC 2998 [1],3.19 µM
same,GI50,SW-620 [2],1.5 µM
same,TGI,SW-620 [2],5.41 µM
same,GI50,LOX IMVI,1.29 µM
same,TGI,LOX IMVI,2.7 µM
same,GI50,MDA-MB-435,1.72 µM
same,GI50,NCI/ADR-RES [3],3.43 µM
same,TGI,NCI/ADR-RES [3],33.1 µM
same,GI50,A498 [4],1.27 µM
same,TGI,A498 [4],3.2 µM
same,GI50,SN12C [5],1.92 µM
same,TGI,SN12C [5],4.82 µM
same,GI50,MCF7 [6],0.937 µM
same,TGI,MCF7 [6],8.02 µM
same,GI50,Hs-578T [7],3.76 µM
same,TGI,Hs-578T [7],> 100 µM
same,GI50,T47D [8],1.36 µM
same,TGI,T47D [8],6.65 µM
same,growth at 0.01 µM,OVCAR-4,106%
same,growth at 0.01 µM,HCT-116 [9],94%
same,growth at 0.01 µM,HOP-62 [10],83%
same,growth at 0.01 µM,SN12C [11],101%
same,growth at 0.01 µM,MDA-MB-231,108%
same,growth at 0.1 µM,CCRF-CEM,94%
same,growth at 0.1 µM,NCI-H322M [12],105%
same,growth at 0.1 µM,SNB-19,91%
same,growth at 0.1 µM,A498 [13],81%
same,growth at 1 µM,HOP-62 [14],73%
same,growth at 1 µM,NCI-H226,77%
same,growth at 1 µM,HCC 2998 [15],95%
same,growth at 1 µM,OVCAR-5,76%
same,growth at 1 µM,NCI/ADR-RES [16],89%
same,growth at 1 µM,PC-3,69%
same,growth at 1 µM,T47D [17],60%
same,growth at 10 µM,HCT-116 [18],-69%
same,growth at 10 µM,HCT-15 [19],-19%
same,growth at 10 µM,SW-620 [20],-24%
same,growth at 10 µM,SK-MEL-5,-97%
same,growth at 10 µM,786-0,-32%
same,growth at 100 µM,NCI-H322M [21],-48%
same,growth at 100 µM,HCT-15 [22],-10%
same,growth at 100 µM,UACC-62,-49%
same,growth at 100 µM,A498 [23],-55%
same,growth at 100 µM,MCF7 [24],-40%
same,growth at 100 µM,Hs-578T [25],18%
COc1cc(-c2cc(/C=C/C(=O)c3ccc(N)cc3)[nH]n2)cc(OC)c1OC,GI50,HCC 2998 [1],2.01 µM
same,LC50,HCC 2998 [1],6.53 µM
same,TGI,HCC 2998 [1],3.63 µM
same,GI50,SW-620 [2],2.05 µM
same,"LC50 (lethal concentration, 50% net cell kill)",SW-620 [2],> 100 µM
same,TGI,SW-620 [2],6.37 µM
same,GI50,LOX IMVI,1.06 µM
same,LC50,LOX IMVI,6.72 µM
same,TGI,LOX IMVI,3.28 µM
same,GI50,MDA-MB-435,1.66 µM
same,LC50,MDA-MB-435,6.2 µM
same,TGI,MDA-MB-435,3.21 µM
same,GI50,NCI/ADR-RES [3],3.8 µM
same,LC50,NCI/ADR-RES [3],> 100 µM
same,TGI,NCI/ADR-RES [3],65.8 µM
same,GI50,A498 [4],1.64 µM
same,LC50,A498 [4],13.4 µM
same,TGI,A498 [4],4.33 µM
same,GI50,SN12C [5],1.86 µM
same,LC50,SN12C [5],13.4 µM
same,TGI,SN12C [5],4.52 µM
same,GI50,MCF7 [6],1.5 µM
same,LC50,MCF7 [6],60.5 µM
same,TGI,MCF7 [6],5.42 µM
same,GI50,Hs-578T [7],4.33 µM
same,LC50,Hs-578T [7],> 100 µM
same,TGI,Hs-578T [7],> 100 µM
same,GI50,T47D [8],1.42 µM
same,LC50,T47D [8],> 100 µM
same,TGI,T47D [8],4.3 µM
same,growth at 0.01 µM,OVCAR-4,85%
same,growth at 0.01 µM,HCT-116 [9],95%
same,growth at 0.01 µM,HOP-62 [10],83%
same,growth at 0.01 µM,SN12C [11],98%
same,growth at 0.01 µM,MDA-MB-231,109%
same,growth at 0.1 µM,CCRF-CEM,91%
same,growth at 0.1 µM,NCI-H322M [12],103%
same,growth at 0.1 µM,SNB-19,94%
same,growth at 0.1 µM,A498 [13],85%
same,growth at 1 µM,HOP-62 [14],86%
same,growth at 1 µM,NCI-H226,88%
same,growth at 1 µM,HCC 2998 [15],110%
same,growth at 1 µM,OVCAR-5,89%
same,growth at 1 µM,NCI/ADR-RES [16],98%
same,growth at 1 µM,PC-3,76%
same,growth at 1 µM,T47D [17],66%
same,growth at 10 µM,HCT-116 [18],-78%
same,growth at 10 µM,HCT-15 [19],-12%
same,growth at 10 µM,SW-620 [20],-20%
same,growth at 10 µM,SK-MEL-5,-95%
same,growth at 10 µM,786-0,-19%
same,growth at 100 µM,NCI-H322M [21],-89%
same,growth at 100 µM,HCT-15 [22],-17%
same,growth at 100 µM,UACC-62,-92%
same,growth at 100 µM,A498 [23],-96%
same,growth at 100 µM,MCF7 [24],-57%
same,growth at 100 µM,Hs-578T [25],2%
